{"source": "patent US20130131079A1", "about": "“FLUFENOXINE DERIVATIVES FOR THE TREATMENT AND PREVENTION OF AMYLOID PATHOLOGIES” (FAES FARMA, S.A., priority 2010, published 2013)", "key": {"tau phosphorylation": {"system": "tau phosphorylation", "assay": "Ability to modify levels of tau phosphorylation in primary culture of cerebellar granule neurons and/or brain cortex (Western Blot, Tau 1, PHF1)", "format": "cell-based, mice", "settings": "CGN or brain cortex neurons", "protocol": "a)—Mouse cortex neurons: brains were obtained from 16-18-day old embryos. The two hemispheres, olfactory bulbs and brain stem were separated. The meninges were removed and the cut tissue was transferred to a 50 ml flask. 10 ml HBSS without Ca without Mg (without phenol red) were added. Two further washings with 3 ml HBSS were performed and digestion was performed with Trypsin-DNase at 37° C. The suspension was broken up by passing the material through glass pipettes with different thicknesses. The cells were cut and cultured in Dulbecco's Modified Eagle's medium (DMEM)+10% FCS. After 3 hours the final medium was placed in Neurobasal medium+B27 Supplement+KCl+glutamine+antibiotics.\n(§1) b) CGN: Cerebellar granule neurons derived from wild-type or transgenic mice were obtained from 6-day old mice. The basic process was similar to the previous one: obtaining and breaking up the tissue was similar and culturing and maintaining in final media was identical. The cerebellum was broken up by treatment with trypsin-EDTA for about 15-20 min and subsequently cultured in plates treated with Poly-L-Lysine (50 micrograms/m1). The neurons were maintained in a serum-free medium, Neurobasal medium+B27 Supplement+KCl+glutamine+antibiotics.\nAbility to Modify Levels of Tau Phosphorylation in Primary Culture of Cerebellar Granule Neurons (CGN) and/or Brain Cortex Derived from Mice (Wild Strain)\nThe data was obtained in relation to the mean of 3 independent experiments of the relative level of tau-1 in soluble cell extracts obtained from cerebellar granule or brain cortex neurons treated with the indicated compounds. The ability to modify the level of tau phosphorylation in cortex neurons or cerebellar granule of […] was analyzed through Western Blot using specific antibodies in a series of fosfo-epitopes (Tau 1, PHF1) after 1, 2 and 3 incubation hours. Actine was used as reference (indicator of the total mass)."}, "cell line CHO-APP-PS1": {"system": "cell line CHO-APP-PS1", "assay": "Toxicity and cell viability in cultures of cell line CHO-APP-PS1", "format": "cell-based, Chinese hamster", "protocol": "The cell viability of different strains was studied in the presence of the compounds of the invention. […] In the toxicity assays, the cells (whether neurons or established lines) were seeded in 24-well plates and exposed to different concentrations of the drug in Dulbecco's Modified Eagle's medium (DMEM)+10% FCS or in the Neurobasal medium+B27 Supplement+KCl+glutamine+antibiotics when primary neurons were used. The treatments were stopped after 24 or 48 hours by fixing the cells with 4% paraformaldehyde for 30 minutes. The fixed cells were stained with 0.2% Coomassie Brilliant blue R-250 in 10% acetic acid/40% methanol for 1 hour at ambient temperature. The stained cells were washed thoroughly with distilled water, and once dried the incorporated dye was extracted with 0.1 N NaOH in 50% methanol. Then it was acidified with 10% trichloroacetic acid and the number of cells was measured in an Elisa reader, with absorbance at 595 nm. DMSO (10 μl/well) was used as a control. […] The medium was collected for 6 hours, and then it was diluted 5 times and analyzed in duplicate using a Biosource ELISA kit (h 1-40 βAmyloid—Ref #KHB3482)."}, "[1]": {"system": "primary cultures of CGN (cerebellar granule neurons)", "assay": "Toxicity and cell viability in primary cultures of CGN", "format": "cell-based, mice", "settings": "24 or 48 hours, Coomassie staining, absorbance at 595 nm", "protocol": "as §1\nThe cell viability of different strains was studied in the presence of the compounds of the invention. […] In the toxicity assays, the cells (whether neurons or established lines) were seeded in 24-well plates and exposed to different concentrations of the drug in Dulbecco's Modified Eagle's medium (DMEM)+10% FCS or in the Neurobasal medium+B27 Supplement+KCl+glutamine+antibiotics when primary neurons were used. The treatments were stopped after 24 or 48 hours by fixing the cells with 4% paraformaldehyde for 30 minutes. The fixed cells were stained with 0.2% Coomassie Brilliant blue R-250 in 10% acetic acid/40% methanol for 1 hour at ambient temperature. […] Then it was acidified with 10% trichloroacetic acid and the number of cells was measured in an Elisa reader, with absorbance at 595 nm. […]"}, "[2]": {"settings": "relative level of tau-1 in soluble cell extracts, mean of 3 experiments"}, "[3]": {"settings": "at 5 and/or 10 micromolar, relative level of tau-1"}}, "note": "Where a name gives a salt, the structure may show the parent alone. Read-outs that look alike come from different tables or passages of the source."}
{"smiles": "Ic1cccc(OC(c2ccccc2)C2CCNCC2)c1", "note": "(stereo not drawn) [COMPOUND 3]", "values": [{"measurement": "ability to modify the level of tau phosphorylation", "setting": "tau phosphorylation; [2]", "value": "modify tau phosphorylation"}, {"measurement": "toxicity (cell viability)", "setting": "cell line CHO-APP-PS1", "value": "none of them giving rise to statistically relevant toxicity levels"}]}
{"smiles": "Clc1ccc(/C=C(\\c2ccccc2)C2CCNCC2)cc1", "note": "[COMPOUND 36, (Z)-4-[(1-phenyl)-2-(4-chlorophenyl)ethen-1-yl]piperidine]", "values": [{"measurement": "ability to modify the level of tau phosphorylation", "setting": "tau phosphorylation; [3]", "value": "modify tau phosphorylation"}]}
{"smiles": "Fc1ccc(OC(CC2CCNCC2)c2ccc(F)cc2)cc1", "note": "(stereo not drawn) [COMPOUND 24]", "values": [{"measurement": "ability to modify the level of tau phosphorylation", "setting": "tau phosphorylation; [3]", "value": "modify tau phosphorylation"}]}
{"smiles": "Fc1ccccc1OC(c1ccccc1)C1CCNCC1", "note": "(stereo not drawn) [COMPOUND 21]", "values": [{"measurement": "ability to modify the level of tau phosphorylation", "setting": "tau phosphorylation; [3]", "value": "modify tau phosphorylation"}]}
{"smiles": "Cc1ccc(Cl)cc1OC(c1ccccc1)C1CCNCC1", "note": "(stereo not drawn) [COMPOUND 10]", "values": [{"measurement": "ability to modify the level of tau phosphorylation", "setting": "tau phosphorylation; [2]", "value": "modify tau phosphorylation"}, {"measurement": "toxicity (cell viability)", "setting": "cell line CHO-APP-PS1; cultures of cell line CHO-APP-PS1, 24 or 48 hours, Coomassie staining, absorbance at 595 nm", "value": "none of them giving rise to statistically relevant toxicity levels"}]}
{"smiles": "c1ccc(-c2ccccc2OC(c2ccccc2)C2CCNCC2)cc1", "note": "(stereo not drawn) [COMPOUND 40]", "values": [{"measurement": "ability to modify the level of tau phosphorylation", "setting": "tau phosphorylation; [3]", "value": "modify tau phosphorylation"}]}
{"smiles": "FC(F)(F)c1ccccc1OC(c1ccccc1)C1CCNCC1", "note": "(stereo not drawn) [COMPOUND 29]", "values": [{"measurement": "ability to modify the level of tau phosphorylation", "setting": "tau phosphorylation; [3]", "value": "modify tau phosphorylation"}]}
{"smiles": "Clc1ccc(OC(c2ccccc2)C2CCNCC2)cc1Cl", "note": "(stereo not drawn) [COMPOUND 34]", "values": [{"measurement": "ability to modify the level of tau phosphorylation", "setting": "tau phosphorylation; [3]", "value": "modify tau phosphorylation"}]}
{"smiles": "c1ccc(C(Oc2cccc3ccccc23)C2CCNCC2)cc1", "note": "(stereo not drawn) [COMPOUND 35]", "values": [{"measurement": "ability to modify the level of tau phosphorylation", "setting": "tau phosphorylation; [3]", "value": "modify tau phosphorylation"}]}
{"smiles": "FC(F)(F)c1ccc(OC(c2ccccc2)C2CCNCC2)cc1", "note": "(stereo not drawn) [COMPOUND 41]", "values": [{"measurement": "ability to modify the level of tau phosphorylation", "setting": "tau phosphorylation; [3]", "value": "modify tau phosphorylation"}]}
{"smiles": "NCCN1CCC(C(Oc2cccc(F)c2)c2ccccc2)CC1", "note": "(racemic) [COMPOUND 37, (+/−)-4-[(3-fluorophenoxy)phenylmetyl]piperidin-1-yl]ethylamine oxalate]", "values": [{"measurement": "toxicity (cell viability)", "setting": "[1]", "value": "somewhat toxic only at certain concentrations"}, {"measurement": "ability to modify the level of tau phosphorylation", "setting": "tau phosphorylation; [3]", "value": "modify tau phosphorylation"}]}
{"smiles": "Fc1cc(COc2ccc3c(c2)OCO3)cc(OC(c2ccccc2)C2CCNCC2)c1", "note": "(racemic) [COMPOUND 32, hydrochloride]", "values": [{"measurement": "ability to modify the level of tau phosphorylation", "setting": "tau phosphorylation; [3]", "value": "modify tau phosphorylation"}]}
{"smiles": "Fc1ccc(OC(CC2CCNCC2)c2ccccc2)cc1", "note": "(stereo not drawn) [COMPOUND 27]", "values": [{"measurement": "ability to modify the level of tau phosphorylation", "setting": "tau phosphorylation; [3]", "value": "modify tau phosphorylation"}]}
{"smiles": "Clc1ccc(C(Oc2cccc3ccccc23)C2CCNCC2)cc1", "note": "(racemic) [COMPOUND 31, (+/−)-4-[(Naphthalen-1-oxy)(4-chlorophenyl)methyl]piperidine hemisulphate]", "values": [{"measurement": "toxicity (cell viability)", "setting": "[1]", "value": "somewhat toxic only at certain concentrations"}, {"measurement": "ability to modify the level of tau phosphorylation", "setting": "tau phosphorylation; [3]", "value": "modify tau phosphorylation"}]}
